Results: US12169166B2, “Fluorogenic cyanine compounds for detecting nucleic acids” (AAT Bioquest, Inc., priority 2021, dated 2024)
“Also recorded” adds a separate entry of the source.

What was measured:
[1] = test system: pGL3 Control vector (Promega) DNA; assay: Post-DNA gel staining; type: binding; conditions: 0.9% agarose, dye 1 ug/ml, same conditions as TO
Protocol: FIGS. 5A-5B show a representation of post-DNA gel staining with Compound 5 versus Thiazole Orange. Serial dilutions of a DNA sample (86, 43, 21.5, 10.7, 5.3, 2.6, 1.3, 0.5 ng/lane) are detected with Thiazole Orange or Compound 5. Compound 5 can clearly detect 1.3 ng DNA while TO can only detect 21.5 ng.
Agarose gels (0.9% agarose) are prepared following a standard protocol (J. Roskams et al., Lab Ref A Handbook of Recipes, Reagents, and Other Reverence Tools for Use at the Bench, Cold Spring Harbor Laboratory Press, Cold Spring Harbor, N.Y., 2002). Serial two-fold dilutions of pGL3 Control vector (Promega) are made and the resulting DNA samples are loaded onto an agarose gel in eight lanes from left to right with a loading of 86, 43, 21.5, 10.7, 5.3, 2.6, 1.3, 0.5 ng/lane, respectively. The DNA samples are electrophoretically separated in 1×TAE buffer using a standard protocol. A stock solution of a cyanine dye in DMSO at about 12 mM concentration is prepared. The stock solution of dye is diluted using an appropriate aqueous solvent to provide a staining solution with an appropriate effective working concentration of the dye (1 ug/ml). The agarose gel is submerged in the staining solution for approximately 30 minutes to stain the gel. The resulting gel is then viewed using a UV transilluminator with 300 nm excitation. […]

[2] = test system: Calf thymus DNA; assay: Fluorescence emission spectra in the presence or absence of DNA; type: binding; conditions: dye 5 ug/ml, DNA 3 ug/ml, Tris Buffer pH=8.0 (FIG. 2)
Protocol: Absorption and fluorescence spectra of cyanine compounds are measured in the presence or absence of DNA in Tris buffer (pH=8.0). […]

[3] = test system: HeLa cells; assay: Cellular cytotoxicity (cell viability, WST kit); type: cell-based; conditions: 0-100 ug/mL dye, 24 hours (FIG. 7)
Protocol: HeLa cells are plated in a 96-well plate (100 μL volume). Next day, to each 100 ul of cells is added 100 ul cyanine solution to make a series of cell samples with the final cyanine dye concentrations of 0, 0.31, 0.62, 1.6, 3.12, 6.25, 12.5, 25, 50, 100 ug/mL respectively. The cell viabilities are measured and plotted for each sample.
HeLa cells are plated in a 96-well plate (100 μL volume). Next day, to each 100 ul of cells is added 100 ul cyanine solution to make a serial cell samples with the final cyanine dye concentrations of 0, 0.31, 0.62, 1.6, 3.12, 6.25, 12.5, 25, 50, 100 ug/mL respectively (total volume is 200 μL for each sample), The cells are incubated in the cyanine-containing media for 24 hours. The cell viabilities are measured with Cell Meter™ Colorimetric WST-5′ Cell Quantification Kit (AAT Bioquest) according to the product instruction.

[4] = test system: Calf thymus DNA; assay: DNA responses in solution (fluorescence vs DNA concentration); type: binding; conditions: Tris Buffer pH=8.0, serial DNA dilutions, microtiter plate reader (FIG. 3)
Protocol: The fluorescence intensities of Compound 5 are measured in the presence of serial dilutions of a DNA sample (0, 3.12, 6.25, 12.5, 25, 50, 100, 1000 ng/ml).
The fluorescence of a cyanine compound in 100 μL of Tris Buffer (pH=8.0) are measured in the presence of 0, 0.21, 0.62, 1.85, 5.6, 16.7, and 50 μg/ml final concentrations of Calf thymus DNA with a microtiter plate reader. The fluorescence is plotted against DNA concentration.

[5] = test system: S. typhimurium; assay: Mutagenicity test with S9 liver extract, colony count; type: cell-based; conditions: 0.2, 1 and 5 ug/plate, 48 hours at 37° C. (FIG. 8)
Protocol: Mutagenicity tests are performed as described in Example 23.
Tubes of top agar are liquified and cooled to 55-60° C. 0.3 mL of histidine/biotin stock (Presque Isle Cultures) is added alongside 20 uL of S9 liver extract. (Sigma). To the top agar tubes 0.1 mL of S. typhimurium (Grown overnight at 37° C. in TSB culture) is added with 1 mL serological pipette. The mixture is thoroughly mixed by vortexing at low speed. The culture mixture is poured into the plates of the glucose-minimal salts agar plates. With the sterile loops, a disk on its edge is placed near the center of the plate. A serial concentrations of cyanine compounds (0.2, 1 and 5 ug/plate) are added to saturate the disk with a sterile Pasteur pipette. Sterile water is used with the same volume as a negative control. The plates are incubated for 48 hours at 37° C., and the colonies are counted near the disk.

[6] = test system: pGL3 Control vector (Promega) DNA; assay: Pre-cast DNA gel staining; type: binding; conditions: 0.9% agarose, dye 1 μg/ml; for sensitivity for detecting DNA on gel compared with TO, pre-cast gel staining: same conditions as TO; for amount of DNA clearly detected per lane, pre-cast gel staining: 300 nm UV transilluminator (FIG. 4)
Protocol: FIGS. 4A-4B show a representation of pre-cast DNA gel staining with Compound 5 versus Thiazole Orange. Serial dilutions of a DNA sample (86, 43, 21.5, 10.7, 5.3, 2.6, 1.3, 0.5 ng/lane) are detected with Thiazole Orange or Compound 5. Compound 5 can clearly detect 5.3 ng DNA while TO can only detect 43 ng.
An agarose gel solution (0.9% agarose) is prepared following a standard protocol (J. Roskams et al., Lab Ref A Handbook of Recipes, Reagents, and Other Reference Tools for Use at the Bench, Cold Spring Harbor Laboratory Press, Cold Spring Harbor, N.Y., 2002). A stock solution of a cyanine dye in DMSO is prepared. An aliquot of the stock solution of dye is added to the gel solution, while it is hot, resulting in an effective working concentration of the dye (1 μg/ml). The resulting solution is thoroughly mixed by swirling. The resulting gel solution is poured onto a gel slab to cast the gel. Serial two-fold dilutions of pGL3 Control vector (Promega) are made and the resulting DNA samples are loaded onto the gel in eight lanes from left to right with a loading of 86, 43, 21.5, 10.7, 5.3, 2.6, 1.3, 0.5 ng/lane, respectively. The DNA samples are electrophoretically separated in 1×TAE buffer using a standard protocol. The resulting gel is then viewed using a UV transilluminator with 300 nm excitation. Photographs of the illuminated gels are taken with an EB filter.

[7] = test system: HeLa cells; assay: Cellular nucleic acid staining of live and fixed cells; type: cell-based; conditions: dye 1 μg/ml in PBS, live or fixed HeLa cells, 30 min, fluorescence microscope (FIG. 6)
Protocol: A cyanine dye (1 μg/ml) in PBS buffer is incubated with live or fixed HeLa cells in 96-well plate for 30 min respectively. The fluorescence image of cells is taken with a fluorescence microscope.
A cyanine dye (1 μg/ml) in PBS buffer (prepared from 1 mM DMSO stock solution) is incubated with live and fixed HeLa cells in 96-well plate for 30 min respectively.

OCCCCN1C(c2ccccc2)=C/C(=C\c2sc3ccccc3[n+]2CCCCO)c2ccccc21 [Compound 4]
sensitivity for detecting DNA on gel compared with TO, post-gel staining [1]: significantly higher sensitivity for detecting DNA on gel than TO; also recorded: much higher sensitivity for detecting DNA on gel than TO | fluorescence enhancement in the presence vs absence of DNA, compared with TO [2]: stronger fluorescence enhancements than TO | cell toxicity compared with SYBR Green [3]: lower cell toxicity compared to SYBR Green; also recorded: much lower cell toxicity than SYBR Green | fluorescence signal in response to increasing DNA concentrations, compared with TO [4]: stronger fluorescence signals than TO; also recorded: linearly responded to the DNA concentrations with better sensitivity than TO | mutagenicity compared with SYBR Green [5]: significantly lower mutagenicity than SYBR Green; also recorded: much lower mutagenicity than SYBR Green | sensitivity for detecting DNA on gel compared with TO, pre-cast gel staining [6]: significantly higher sensitivity for detecting DNA on a gel than TO; also recorded: much higher sensitivity for detecting DNA on gel than TO | live cell permeability [7]: cell impermeability

NCCCCN1C(c2ccccc2)=C/C(=C\c2sc3ccccc3[n+]2CCCCN)c2ccccc21 [Compound 5]
fluorescence enhancement in the presence vs absence of DNA, compared with TO [2]: stronger fluorescence enhancements than TO | cell toxicity compared with SYBR Green [3]: significantly lower cell toxicity than SYBR Green; also recorded: much lower cell toxicity than SYBR Green | fluorescence signal in response to increasing DNA concentrations, compared with TO [4]: significantly higher fluorescence signals than Thiazole orange (TO); also recorded: stronger fluorescence signals than TO | mutagenicity compared with SYBR Green [5]: significantly lower mutagenicity than SYBR Green; also recorded: much low mutagenicity than SYBR Green | amount of DNA clearly detected per lane, pre-cast gel staining [6]: 5.3 ng | live cell permeability [7]: live cell impermeant

CC(=O)NCCCCN1C(c2ccccc2)=C/C(=C\c2sc3ccccc3[n+]2CCCCNC(C)=O)c2ccccc21 [Compound 6]
sensitivity for detecting DNA on gel compared with TO, post-gel staining [1]: significantly higher sensitivity for detecting DNA on gel than TO; also recorded: much higher sensitivity for detecting DNA on gel than TO | fluorescence enhancement in the presence vs absence of DNA, compared with TO [2]: stronger fluorescence enhancements than TO | cell toxicity compared with SYBR Green [3]: lower cell toxicity compared to SYBR Green; also recorded: much lower cell toxicity than SYBR Green | fluorescence signal in response to increasing DNA concentrations, compared with TO [4]: stronger fluorescence signals than TO | mutagenicity compared with SYBR Green [5]: significantly lower mutagenicity than SYBR Green; also recorded: much lower mutagenicity than SYBR Green | sensitivity for detecting DNA on gel compared with TO, pre-cast gel staining [6]: significantly higher sensitivity for detecting DNA on a gel than TO; also recorded: much higher sensitivity for detecting DNA on gel than TO | live cell permeability [7]: cell impermeability

CN1/C(=C/c2cc[n+](C)c3ccccc23)Sc2ccccc21 [TO, Thiazole Orange, reference compound]
amount of DNA clearly detected per lane, pre-cast gel staining [6]: 43 ng | live cell permeability [7]: can readily penetrate the cells
